From patent publication US20250282771A1, “TETRAHYDROISOQUINOLINE HETEROBIFUNCTIONAL BCL-XL DEGRADERS” (Treeline Biosciences, Inc., priority 2022, published 2025)

Molecular target: T1, N-terminal HiBiT tagged BCL-XL (Homo sapiens, UniProt Q07817)
T1 construct: expressed in transfected cells; host or cells: HT-1080 (ATCC CCL-121) cells stably transduced with lentivirus pLV-UBC-N-HiBiT-BCL-XL-PGK-puro
Assay: HiBiT based degradation assay
Type: cell-based
Settings: HT1080 cells expressing N-terminal HiBiT tagged BCL-XL, BCL-XL level normalized with DMSO control
From the text: Human BCL-XL protein coding open reading frame fused with N-terminal HiBiT coding sequence was synthesized from Integrated DNA Technologies (IDT). Next, N-HiBiT-BCL-XL sequence was cloned into pLV-UBC-PGK-Puro, a lentivirus plasmid purchased from Vectorbuilder, to generate pLV-UBC-N-HiBiT-BCL-XL-PGK-puro. Lentiviral particles were generated from Lenti-X™ 293T cells (Clontech) by co-transfection of pLV-UBC-N-HiBiT-BCL-XL-PGK-puro plasmids and lentiviral packaging plasmid mix (Cellecta). HT-1080 [HT1080](ATCC CCL-121) cells were infected with the lentivirus, and HT1080 cells stably integrated with the lentiviral vectors were established by incubation with […] puromycin (Thermofisher).
HT1080 cells expressing N-terminal HiBiT tagged BCL-XL were dispensed into a 384-well plate pre-spotted with compounds at varying concentrations. Three thousand cells were seeded into each well in 40 μL of RPMI 1640 media. […] After incubation, luminescence was read on a PHERAstar FSX Plate Reader (BMG). BCL-XL degradation at each indicated concentration was normalized with the DMSO control. The BCL-XL degradation curves were plotted using a four-parameter logistic model. For compounds displaying hook effects, the curve fitting was performed using the bottom point of the hook curves (i.e., the point of Ymin) as the bottom plateau to calculate EC50.

T1 sequence (Q07817 whole entry): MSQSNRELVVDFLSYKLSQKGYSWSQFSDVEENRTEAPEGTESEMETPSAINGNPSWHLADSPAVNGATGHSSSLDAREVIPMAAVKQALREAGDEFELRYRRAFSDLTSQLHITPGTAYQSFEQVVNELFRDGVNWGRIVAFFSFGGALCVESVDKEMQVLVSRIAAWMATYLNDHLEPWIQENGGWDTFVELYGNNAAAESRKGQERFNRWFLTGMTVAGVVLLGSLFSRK

Row | SMILES | Ymin (6 h) | Ymin (24 h)
1 | Cc1c(OCCCCCCCCCC(=O)N2CCN(c3cc4c(cc3F)C(=O)N(C3CCC(=O)NC3=O)C4=O)CC2)cccc1-c1ccc(N2CCc3cccc(C(=O)Nc4nc5ccccc5s4)c3C2)nc1C(=O)O (stereo not drawn) [Compound 102] | A (Ymin < 50%) | 
2 | O=C1CCC(N2C(=O)c3cc(F)c(N4CCN(CCCCCCCOc5cccc(-c6ccc(N7CCc8cccc(C(=O)Nc9nc%10ccccc%10s9)c8C7)nc6C(=O)O)c5)CC4)cc3C2=O)C(=O)N1 (stereo not drawn) [Compound 103] | B (50% ≤ Ymin < 70%) | 
3 | Cc1c(OCCCCCCCCCN2CCN(c3cc4c(cc3F)C(=O)N(C3CCC(=O)NC3=O)C4=O)CC2)cccc1-c1ccc(N2CCc3cccc(C(=O)Nc4nc5ccccc5s4)c3C2)nc1C(=O)O (stereo not drawn) [Compound 105] | A (Ymin < 50%) | 
4 | Cc1c(OCCC2CCN(CC(=O)N3CCN(c4cc5c(cc4F)C(=O)N(C4CCC(=O)NC4=O)C5=O)CC3)CC2)cccc1-c1ccc(N2CCc3cccc(C(=O)Nc4nc5ccccc5s4)c3C2)nc1C(=O)O (stereo not drawn) [Compound 106, 6-[8-(1,3-Benzothiazol-2-ylcarbamoyl)-3,4-dihydro-1H-isoquinolin-2-yl]-3-[3-[2-[1-[2-[4-[2-(2,6-dioxo-3-piperidyl)-6-fluoro-1,3-dioxo-isoindolin-5-yl]piperazin-1-yl]-2-oxo-ethyl]-4-piperidyl]ethoxy]-2-methyl-phenyl]pyridine-2-carboxylic acid] | B (50% ≤ Ymin < 70%) | 
5 | Cc1c(OCCCCCCCCCCCN2CCN(c3cc4c(cc3F)C(=O)N(C3CCC(=O)NC3=O)C4=O)CC2)cccc1-c1ccc(N2CCc3cccc(C(=O)Nc4nc5ccccc5s4)c3C2)nc1C(=O)O (stereo not drawn) [Compound 107] | B (50% ≤ Ymin < 70%) | 
6 | Cc1c(OCCCCCCCCN2CCN(c3cc4c(cc3F)C(=O)N(C3CCC(=O)NC3=O)C4=O)CC2)cccc1-c1ccc(N2CCc3cccc(C(=O)Nc4nc5ccccc5s4)c3C2)nc1C(=O)O (stereo not drawn) [Compound 108] | B (50% ≤ Ymin < 70%) | 
7 | Cc1c(OCCCCCCCCC(=O)N2CCN(c3cc4c(cc3F)C(=O)N(C3CCC(=O)NC3=O)C4=O)CC2)cccc1-c1ccc(N2CCc3cccc(C(=O)Nc4nc5ccccc5s4)c3C2)nc1C(=O)O (stereo not drawn) [Compound 109] | B (50% ≤ Ymin < 70%) | 
8 | Cc1c(Oc2ccc(CCCN3CCN(c4cc5c(cc4F)C(=O)N(C4CCC(=O)NC4=O)C5=O)CC3)cc2)cccc1-c1ccc(N2CCc3cccc(C(=O)Nc4nc5ccccc5s4)c3C2)nc1C(=O)O (stereo not drawn) [Compound 110, 6-[8-(1,3-Benzothiazol-2-ylcarbamoyl)-3,4-dihydro-1H-isoquinolin-2-yl]-3-[3-[4-[3-[4-[2-(2,6-dioxo-3-piperidyl)-6-fluoro-1,3-dioxo-isoindolin-5-yl]piperazin-1-yl]propyl]phenoxy]-2-methyl-phenyl]pyridine-2-carboxylic acid] | B (50% ≤ Ymin < 70%) | B (50% ≤ Ymin < 70%)
9 | Cc1c(OCC2CC3(CCN(CC(=O)N4CCN(c5cc6c(cc5F)C(=O)N(C5CCC(=O)NC5=O)C6=O)CC4)CC3)C2)cccc1-c1ccc(N2CCc3cccc(C(=O)Nc4nc5ccccc5s4)c3C2)nc1C(=O)O (stereo not drawn) [Compound 113, 6-[8-(1,3-benzothiazol-2-ylcarbamoyl)-3,4-dihydro-1H-isoquinolin-2-yl]-3-[3-[[7-[2-[4-[2-(2,6-dioxo-3-piperidyl)-6-fluoro-1,3-dioxo-isoindolin-5-yl]piperazin-1-yl]-2-oxo-ethyl]-7-azaspiro[3.5]nonan-2-yl]methoxy]-2-methyl-phenyl]pyridine-2-carboxylic acid] | B (50% ≤ Ymin < 70%) | B (50% ≤ Ymin < 70%)
10 | Cc1c(OCCCCCCCC(=O)N2CCN(c3cc4c(cc3F)C(=O)N(C3CCC(=O)NC3=O)C4=O)CC2)cccc1-c1ccc(N2CCc3cccc(C(=O)Nc4nc5ccccc5s4)c3C2)nc1C(=O)O (stereo not drawn) [Compound 114] | B (50% ≤ Ymin < 70%) | 
11 | Cc1c(Oc2ccc(CCCCN3CCN(c4cc5c(cc4F)C(=O)N(C4CCC(=O)NC4=O)C5=O)CC3)cc2)cccc1-c1ccc(N2CCc3cccc(C(=O)Nc4nc5ccccc5s4)c3C2)nc1C(=O)O (stereo not drawn) [Compound 117, 6-(8-(benzo[d]thiazol-2-ylcarbamoyl)-3,4-dihydroisoquinolin-2(1H)-yl)-3-(3-(4-(4-(4-(2-(2,6-dioxopiperidin-3-yl)-6-fluoro-1,3-dioxoisoindolin-5-yl)piperazin-1-yl)butyl)phenoxy)-2-methylphenyl)picolinic acid] | B (50% ≤ Ymin < 70%) | B (50% ≤ Ymin < 70%)

The remaining lines, values ahead:

Row | Ymin (6 h) | Ymin (24 h) | SMILES
12 | B (50% ≤ Ymin < 70%) |  | Cc1c(OCCCN2CCN(c3cc4c(cc3F)C(=O)N(C3CCC(=O)NC3=O)C4=O)CC2)cccc1-c1ccc(N2CCc3cccc(C(=O)Nc4nc5ccccc5s4)c3C2)nc1C(=O)O (stereo not drawn) [Compound 101]
13 | B (50% ≤ Ymin < 70%) | B (50% ≤ Ymin < 70%) | Cc1c(OCCCCCCCN2CCN(c3cc4c(cc3F)C(=O)N(C3CCC(=O)NC3=O)C4=O)CC2)cccc1-c1ccc(N2CCc3cccc(C(=O)Nc4nc5ccccc5s4)c3C2)nc1C(=O)O (stereo not drawn) [Compound 104, 6-(8-(benzo[d]thiazol-2-ylcarbamoyl)-3,4-dihydroisoquinolin-2(1H)-yl)-3-(3-((7-(4-(2-(2,6-dioxopiperidin-3-yl)-6-fluoro-1,3-dioxoisoindolin-5-yl)piperazin-1-yl)heptyl)oxy)-2-methylphenyl)picolinic acid]
14 | B (50% ≤ Ymin < 70%) | B (50% ≤ Ymin < 70%) | Cc1c(O[C@H]2CC[C@H](CCC(=O)N3CCN(c4cc5c(cc4F)C(=O)N(C4CCC(=O)NC4=O)C5=O)CC3)CC2)cccc1-c1ccc(N2CCc3cccc(C(=O)Nc4nc5ccccc5s4)c3C2)nc1C(=O)O (stereo partly drawn) [Compound 111a, 6-(8-(benzo[d]thiazol-2-ylcarbamoyl)-3,4-dihydroisoquinolin-2(1H)-yl)-3-(3-(((1r,4r)-4-(3-(4-(2-(2,6-dioxopiperidin-3-yl)-6-fluoro-1,3-dioxoisoindolin-5-yl)piperazin-1-yl)-3-oxopropyl)cyclohexyl)oxy)-2-methylphenyl)picolinic acid]
15 | B (50% ≤ Ymin < 70%) | C (Ymin ≥ 70%) | Cc1c(O[C@H]2CC[C@H](CCCN3CCN(c4cc5c(cc4F)C(=O)N(C4CCC(=O)NC4=O)C5=O)CC3)CC2)cccc1-c1ccc(N2CCc3cccc(C(=O)Nc4nc5ccccc5s4)c3C2)nc1C(=O)O (stereo partly drawn) [Compound 112a, 6-(8-(benzo[d]thiazol-2-ylcarbamoyl)-3,4-dihydroisoquinolin-2(1H)-yl)-3-(3-(((1s,4r)-4-(3-(4-(2-(2,6-dioxopiperidin-3-yl)-6-fluoro-1,3-dioxoisoindolin-5-yl)piperazin-1-yl)propyl)cyclohexyl)oxy)-2-methylphenyl)picolinic acid]
16 | C (Ymin ≥ 70%) | B (50% ≤ Ymin < 70%) | Cc1c(OCCCCCCN2CCN(c3cc4c(cc3F)C(=O)N(C3CCC(=O)NC3=O)C4=O)CC2)cccc1-c1ccc(N2CCc3cccc(C(=O)Nc4nc5ccccc5s4)c3C2)nc1C(=O)O (stereo not drawn) [Compound 115]
17 |  | A (Ymin < 50%) | Cc1c(OCCC2CCN(CCN3CCN(c4cc5c(cc4F)C(=O)N(C4CCC(=O)NC4=O)C5=O)CC3)CC2)cccc1-c1ccc(N2CCc3cccc(C(=O)Nc4nc5ccccc5s4)c3C2)nc1C(=O)O (stereo not drawn) [Compound 116, 6-[8-(1,3-benzothiazol-2-ylcarbamoyl)-3,4-dihydro-1H-isoquinolin-2-yl]-3-[3-[2-[1-[2-[4-[2-(2,6-dioxo-3-piperidyl)-6-fluoro-1,3-dioxo-isoindolin-5-yl]piperazin-1-yl]ethyl]-4-piperidyl]ethoxy]-2-methyl-phenyl]pyridine-2-carboxylic acid]
